Data set [1] has as its system virus H1N1 A/Weiss/43. The data set is described as follows: microbe, parasite or virus in culture. Format: cell-based. As to conditions: Influenza A virus, 120 h; MDCK cells, H1N1 A/Weiss/43, Scheme 1: 8 concentrations 100 μM to 0.05 μM, 5 days, CCK-8.
The conditions of data set [2]: SD, rat, in vivo; for F: po, 5 mg/kg.
Procedure: (§1) The compounds disclosed herein were administered in form of a saline solution containing 5% DMSO, 5% Kolliphor HS 15 and 90% Saline. […] Plasma samples were collected and stored at −20° C. or −70° C. until LC/MS/MS analysis.
A short description of another data set: in vivo. As to conditions: SD, rat.
Data set [3] deals with virus H1N1 A/Weiss/43. Kind of data set: microbe, parasite or virus in culture. Format: cell-based. As to conditions: Influenza A virus, 120 h; MDCK cells, H1N1 A/Weiss/43, Scheme 2: 8 concentrations 50 nM to 0.023 nM, 5 days, CCK-8.

Here are results for 8 molecules from patent publication US11225477B2, “Inhibitors of influenza virus replication, application methods and uses thereof” (SUNSHINE LAKE PHARMA CO., LTD., priority 2015, dated 2022).

By EC50 is commonly meant the midpoint of the concentration-response curve. For orientation: AUC(0-inf) means total exposure, with the tail of the curve extrapolated. For orientation: AUC(0-t) means the area under the concentration-time curve up to a stated or last time point. The low end stands for less exposure, the high end for more exposure. As usually defined, the Cmax is the peak of the concentration-time curve. Broadly, the Tmax is the time from dosing to the highest level. The Vd is a proportionality between amount in the body and measured concentration, not a real space. In general, clearance refers to the volume of plasma or blood freed of the substance per unit of time. Read a high clearance as a high capacity for elimination. One may read the half-life as the time needed for the level to fall by half in the phase considered. Higher therefore signals slow loss.

Procedure for in vivo: as §1

The molecule `O=C(O)C1C2CCC(CC2)C1Nc1cc(-c2ccc(F)cc2)nc(-c2c[nH]c3ncc(F)cc23)n1` (racemic) [Example 6, (+/−)-trans-3-((2-(5-fluoro-1H-pyrrolo[2,3-b]pyridin-3-yl)-6-(4-fluorophenyl)pyrimidin-4-yl)amino)bicyclo[2.2.2]octane-2-carboxylic Acid] came in with a half-maximal effective concentration (EC50) in the data set with virus H1N1 A/Weiss/43 [1] of under 50 nM.
Consider `O=C(O)C1C2CCC(CC2)C1Nc1nc(-c2c[nH]c3ncc(F)cc23)nc2ccccc12` (racemic) [Example 1, (+/−)-trans-3-((2-(5-fluoro-1H-pyrrolo[2,3-b]pyridin-3-yl)quinazolin-4-yl)amino)bicyclo[2.2.2]octane-2-carboxylic Acid], for which the F in data set [2] is recorded as 42.1%. In addition, in the data set on virus H1N1 A/Weiss/43 [1], the EC50 is under 50 nM. Further, in “in vivo” (iv, 1 mg/kg), the AUC(0-inf) stood at 5020 ng·h/mL, the AUC(0-t) was 4960 ng·h/mL, the peak level (Cmax) was 5900 ng/mL and the Tmax is 4.98 min. In the data set “in vivo” (iv, 1 mg/kg), this molecule had a Vd of 1.03 L/kg, a clearance of 3.42 mL/min/kg and a half-life of 67.8 min. For the same molecule, in the data set “in vivo” (po, 5 mg/kg), the AUC(0-inf) amounted to 10600 ng·h/mL, the AUC(0-t) came out at 10100 ng·h/mL, the Cmax amounted to 3130 ng/mL and the Tmax was found to be 50 min. Also, in “in vivo” (po, 5 mg/kg), the half-life is 88.8 min.
As for `O=C(O)C1C2CCC(CC2)C1Nc1cc(-c2cc3ccccc3s2)nc(-c2c[nH]c3ncc(F)cc23)n1` (racemic) [Example 17, (+/−)-trans-3-((6-(benzo[b]thiophen-2-yl)-2-(5-fluoro-1H-pyrrolo[2,3-b]pyridin-3-yl)pyrimidin-4-yl)amino)bicyclo[2.2.2]octane-2-carboxylic Acid], the F in data set [2] came to 66.4%. In “in vivo” (iv, 1 mg/kg), the AUC(0-inf) is 2520 ng·h/mL, the AUC(0-t) amounted to 2510 ng·h/mL, the Cmax turned out to be 4420 ng/mL and the Tmax came out at 4.98 min. Also, in the data set “in vivo” (iv, 1 mg/kg), the Vd is 1.49 L/kg, the clearance was 6.62 mL/min/kg and the half-life was 67.2 min. In addition, in “in vivo” (po, 5 mg/kg), the AUC(0-inf) is 8360 ng·h/mL, the AUC(0-t) came out at 8270 ng·h/mL, the concentration peaked (Cmax) at 2660 ng/mL and the Tmax was found to be 30 min. In “in vivo” (po, 5 mg/kg), the half-life is 54.7 min. Further, the EC50 in the data set on virus H1N1 A/Weiss/43 [3] turned out to be 0.54 nM.
In the data set on virus H1N1 A/Weiss/43 [1], `COc1ccc(-c2cc(NC3C4CCC(CC4)C3C(=O)O)nc(-c3c[nH]c4ncc(F)cc34)n2)cc1` (racemic) [Example 3, (+/−)-trans-3-((2-(5-fluoro-1H-pyrrolo[2,3-b]pyridin-3-yl)-6-(4-methoxyphenyl)pyrimidin-4-yl)amino)bicyclo[2.2.2]octane-2-carboxylic Acid] displayed an EC50 of under 50 nM.
Molecule `O=C(O)C1C2CCC(CC2)C1Nc1cc(-c2ccco2)nc(-c2c[nH]c3ncc(F)cc23)n1` (racemic) [Example 9, (+/−)-trans-3-((2-(5-fluoro-1H-pyrrolo[2,3-b]pyridin-3-yl)-6-(furan-2-yl)pyrimidin-4-yl)amino)bicyclo[2.2.2]octane-2-carboxylic Acid] yielded a CL in data set [2] (iv, 1 mg/kg) of 97.7 mL/min/kg. Further, in data set [2], the F is given as 47.5%. Further, in the data set “in vivo” (iv, 1 mg/kg), the total exposure AUC(0-inf) was 7350 ng·h/mL, the AUC(0-t) amounted to 7260 ng·h/mL, the maximum concentration (Cmax) turned out to be 10900 ng/mL and the Tmax worked out at 4.98 min. In “in vivo” (iv, 1 mg/kg), the Vd came to 0.551 L/kg and the half-life is 91.2 min. In addition, in the data set “in vivo” (po, 5 mg/kg), the AUC(0-inf) came out at 17500 ng·h/mL, the AUC(0-t) came to 17400 ng·h/mL, the Cmax was 5270 ng/mL and the Tmax stood at 30 min. Moreover, in “in vivo” (po, 5 mg/kg), the half-life is 189 min. The same molecule yielded an EC50 with virus H1N1 A/Weiss/43 [3] of 0.066 nM.
Regarding `Cn1ccc2c(NC3C4CCC(CC4)C3C(=O)O)nc(-c3c[nH]c4ncc(F)cc34)nc21` (racemic) [Example 65, (+/−)-trans-3-((2-(5-fluoro-1H-pyrrolo[2,3-b]pyridin-3-yl)-7-methyl-7H-pyrrolo[2,3-d]pyrimidin-4-yl)amino)bicyclo[2.2.2]octane-2-carboxylic Acid], in data set [2], the F is 44.9%. For the same molecule, in the data set “in vivo” (iv, 1 mg/kg), the area under the curve AUC(0-inf) stood at 5360 ng·h/mL, the exposure AUC(0-t) was 5340 ng·h/mL, the Cmax was determined as 6830 ng/mL and the Tmax amounted to 4.98 min. Besides, in the data set “in vivo” (iv, 1 mg/kg), the distribution volume (Vd) was found to be 0.168 L/kg, the clearance was found to be 3.13 mL/min/kg and the half-life was 57.9 min. In the data set “in vivo” (po, 5 mg/kg), the AUC(0-inf) was 12100 ng·h/mL, the AUC(0-t) came to 12000 ng·h/mL, the peak level (Cmax) was 7940 ng/mL and the Tmax stood at 25 min. This molecule gave a half-life in the data set “in vivo” (po, 5 mg/kg) of 68.4 min. This molecule displayed an EC50 with virus H1N1 A/Weiss/43 [3] of 0.66 nM.
The molecule `O=C(O)C1C2CCC(CC2)C1Nc1cc(-c2ccccc2)nc(-c2c[nH]c3ncc(F)cc23)n1` (racemic) [Example 4, (+/−)-trans-3-((2-(5-fluoro-1H-pyrrolo[2,3-b]pyridin-3-yl)-6-phenylpyrimidin-4-yl)amino)bicyclo[2.2.2]octane-2-carboxylic Acid] showed a F in data set [2] of 56.4%. This molecule also registered an EC50 with virus H1N1 A/Weiss/43 [1] of under 50 nM. Also, in “in vivo” (iv, 1 mg/kg), the AUC(0-inf) was determined as 4610 ng·h/mL, the AUC(0-t) amounted to 4540 ng·h/mL, the highest level (Cmax) was 5980 ng/mL and the Tmax came to 4.98 min. Besides, in “in vivo” (iv, 1 mg/kg), the Vd stood at 0.412 L/kg, the clearance stood at 3.66 mL/min/kg and the half-life was 163 min. In addition, in the data set “in vivo” (po, 5 mg/kg), the AUC(0-inf) was determined as 12800 ng·h/mL, the AUC(0-t) turned out to be 12800 ng·h/mL, the highest level (Cmax) was 3480 ng/mL and the Tmax was 40 min. In the data set “in vivo” (po, 5 mg/kg), the half-life was 178 min. For the same molecule, the EC50 with virus H1N1 A/Weiss/43 [3] was found to be 0.2 nM.
`O=C(O)C1C2CCC(CC2)C1Nc1nc(-c2c[nH]c3ncc(F)cc23)nc2c1CCCC2` (racemic) [Example 2, (+/−)-trans-3-((2-(5-fluoro-1H-pyrrolo[2,3-b]pyridin-3-yl)-5,6,7,8-tetrahydroquinazolin-4-yl)amino)bicyclo[2.2.2]octane-2-carboxylic Acid] yielded a F in data set [2] of 47.1%. The EC50 with virus H1N1 A/Weiss/43 [1] is under 50 nM. In addition, in “in vivo” (iv, 1 mg/kg), the AUC(0-inf) was 3470 ng·h/mL, the AUC(0-t) came to 3440 ng·h/mL, the peak level (Cmax) was 4910 ng/mL and the Tmax is 4.98 min. For the same molecule, in “in vivo” (iv, 1 mg/kg), the Vd was found to be 1.26 L/kg, the clearance was 4.9 mL/min/kg and the half-life was 63.6 min. In addition, in “in vivo” (po, 5 mg/kg), the AUC(0-inf) came out at 8180 ng·h/mL, the AUC(0-t) was 8080 ng·h/mL, the Cmax is 4020 ng/mL and the Tmax was determined as 25 min. The half-life in “in vivo” (po, 5 mg/kg) was 79.8 min.
